How the values were obtained:
[1] = test system: JIMT-1 stem cell spheroids; assay: Morphology of JIMT-1 stem cell spheroids; format: cell-based, human
Protocol: FIG. 7. A. Effect of β-O-Gln, β-C-Gln or ET-18-OCH3 on morphology of JIMT-1 stem cell spheroids. B. Effect of β-O-Gln, α-O-Gln or ET-18-OCH3 on morphology of JIMT-1 stem cell spheroids. JIMT-1 cancer stem cells were grown for 7 days in ultra low adhesion 6 well plates. The tumorspheres formed were harvested, trypsinised and cell numbers were determined. Equal numbers of cells were dispersed into 48-well non-treated plates in mammocult medium and incubated in a CO2 incubator under static conditions. After spheres were formed, O-Gln, C-Gln or ET-18-OCH3 were added (0, 10, 20 and 30 μM) and incubation was for a total of 6 days with media supplementation after 3 days. Images for FIG. 7A were taken at day 0 and after 72 h following addition of the compounds. Images for FIG. 7B were taken after 6 days incubation with the compounds.
The above studies were repeated with JIMT-1 spheroids.

BT-474 cancer stem cells = assay: BT-474 cancer stem cell spheroid formation; format: cell-based, human; details: BT474 cancer stem cells, FIG. 1B
Protocol: FIG. 1. A. Effect of β-C-Gln (β-AC1) on BT-474 cancer stem cell spheroid formation. BT-474 cancer stem cells were obtained by staining BT474 cells for ALDH1 and sorting the stained from unstained cells by flow cytometry. The ALDH1 stained cells were grown in ultra-low adhesion 6-well plates in mammocult medium for 7 days. The spheroids were isolated and trypsinised to generate single cells. The cells were then seeded for 2 days in ultra-low adhesion 6-well plates, and subsequently incubated in the absence or presence of C-Gln for up to 12 days. The media was replenished after 6 days. B. Effect of β-O-Gln (β-AO1), α-O-Gln (α-AO1), or ET-18-OCH3 on BT-474 cancer stem cell spheroid formation.
Breast cancer stem cell enriched cell population was obtained by staining breast cancer cell lines BT-474 and JIMT-1 for aldehyde dehydrogenase 1 (ALDH1) using the assay kit from Stem Cell Technologies (Vancouver BC, Canada) according to the instructions of the manufacturer with the appropriate controls. […] The cell numbers were determined with a Coulter ZM counter and the cells were seeded into the appropriate low adhesion tissue culture ware for various studies. […]

[2] = test system: BT-474 stem cell spheroids; assay: Morphology of BT-474 stem cell spheroids under static conditions; format: cell-based, human; details: after 72 h treatment, FIG. 5A
Protocol: FIG. 5. A. Effect of β-O-Gln, C-Gln or ET-18-OCH3 on morphology of JIMT1 stem cell spheroids. B. Effect of β-O-Gln, α-O-Gln or ET-18-OCH3 on morphology of BT-474 stem cell spheroids. BT-474 cancer stem cells were grown for 7 days in ultra low adhesion 6 well plates. The tumorspheres formed were harvested, trypsinised and cell numbers were determined. Equal numbers of cells were dispersed into 48-well plates in mammocult medium and incubation was under static conditions. After spheres were formed, they were incubated with β-O-Gln, α-O-Gln or β-C-Gln (0, 10, or 30 μM) for 6 days. The medium was replenished after 3 days. Images in FIG. 5A were taken at day 0 and 72 h following addition of the compounds. Images in FIG. 5B were taken after 6 days of incubation with the compounds.
The effects of the GAELs, β-O-Gln, α-O-Gln or C-Gln on the growth and viability of tumorspheres growing under static conditions was also investigated. Studies were also conducted with ET-18-OCH3 as a representative of the ALP subclass and an apoptosis inducing compound. Under static conditions a large number of spheroids are formed in control incubations with the vehicle (0.1% EtOH). […] Complete disintegration is observed after incubation with GAELs for 6 days (FIG. 5B). […] Thus, while some disintegration had occurred it was not as comprehensive as those observed with the GAELs.

cancer stem cells = assay: Tumorsphere formation by freshly sorted cancer stem cells; format: cell-based, human; details: added to freshly sorted cancer stem cells, 10 μM and above, 6 days
Text: Breast cancer stem cell enriched cell population was obtained by staining breast cancer cell lines BT-474 and JIMT-1 for aldehyde dehydrogenase 1 (ALDH1) using the assay kit from Stem Cell Technologies (Vancouver BC, Canada) according to the instructions of the manufacturer with the appropriate controls. BT-474 is a ductal carcinoma cell line (Lasfargues E Y, Coutinho W G, Dion A S (1979) A human breast tumor cell line (BT-474) that supports mouse mammary tumor virus replication. In Vitro 15, 723-729) while JIMT-1 is a carcinoma cell line that is resistant to herceptin (Tanner M, Kapanen A J, Junttila T, Raheem O, Grenman S, Elo J, Elenius K, Isola J (2004). Characterization of a novel cell line established from a patient with herceptin-resistant breast cancer. Mol Cancer Ther 3, 1585-1592). Following the staining, the cells stained for ALDH1 were sorted from the bulk population by flow cytometry on a 4 laser MoFloXPP high speed/pressure cell sorter. The cells were pelleted by centrifugation, resuspended in supplemented Mammocult medium (Stem Cell Technologies) and dispersed into ultra-low adhesive 6-well plates or 35 mm dishes for 7 days to allow the formation of spheroids (mammospheres). After 7 days, the spheres were separated from single cells (dead non-stem cells) by sieving the contents of the well through a […] nylon cell strainer (BD Falcon). The spheres retained in the sieve are washed with Hanks buffer and subsequently trypsinised to obtain a single cell suspension of cancer stem cells. The cell numbers were determined with a Coulter ZM counter and the cells were seeded into the appropriate low adhesion tissue culture ware for various studies.
AEL solutions in ethanol were diluted into supplemented mammocult medium generally at twice the desired final concentration. A volume equal to that in the wells was added to dilute the drug to the desired concentration in each well. Subsequently any further addition of drug to the wells, utilized AEL solution prepared at the desired concentration. […]

BT474 cancer stem cells = assay: Trypan blue dye exclusion viability of BT474 cancer stem cells; format: cell-based, human; details: BT474 cancer stem cells incubated with compound
Protocol: Trypan blue dye exclusion assay using the TC10 automated cell counter (BioRad) was also used for some studies.
We investigated the effects of the GAELs and the ALPET-18-OCH3 on the ability of the cancer stem cells to form tumorspheres. […] This was a concentration dependent event and at concentrations greater than 10 μM spheroid formation was completely disrupted.

[3] = cells with a functioning apoptotic pathway; cited from earlier work

CCCCCCCCCCCCCCCCOC[C@H](CO[C@@H]1O[C@H](CO)[C@@H](O)[C@H](O)[C@H]1N)OC [β-O-Gln, 1-O-hexadecyl-2-O-methyl-3-O-(2′-amino-2′-deoxy-β-D-glucopyranosyl)-sn-glycerol]
spheroid morphology and compactness ([1]; 10-30 μM, after 3 days, FIG. 7A): profound effect on the morphology and compactness | spheroid integrity ([1]; 6 days, FIG. 7B): complete disintegration of the spheroids | spheroid formation (BT-474 cancer stem cells): unable to form spheroids | spheroid integrity [2]: significant disintegration | spheroid formation (cancer stem cells): unable to form spheroids | viability (trypan dye exclusion) (BT474 cancer stem cells): not viable | caspase 3 or 9 activation during cell death [3]: without activation of caspase 3 or 9

Reference: patent US11261210B2, “Glycosylated antitumor ether lipids as novel cancer stem cell cytotoxic agents” (UNIVERSITY OF MANITOBA, priority 2012, dated 2022)
